Where two headings read alike, the source gives them in different places.
How the values were obtained:
[1] = Solubility of cyanine dye in DAA at 20° C.; format: physicochemical; details: in diacetone alcohol (DAA) at 20° C.
Description: For the cyanine dyes in Table 1, they were measured in a conventional manner for solubility in […] at 20° C. In parallel, conventional related compounds represented by Chemical Formulae 73 to 76 were also measured for solubility in DAA in a similar way.

[2] = Decomposition point of cyanine dye by DTA/TGA; format: physicochemical; details: temperature at which specimen begins to lose weight on TGA; heating rate 10° C./min
From the text: An adequate amount of any one of the cyanine dyes in Table 1 as a test specimen was placed in a vessel and subjected to conventional differential thermal analysis (hereinafter abbreviated as “DTA”) and thermogravimetric analysis (hereinafter abbreviated as “TGA”) using “MODEL TG/DTA 220”, a digital thermo analyzer commercialized by Seiko Instruments Inc., Tokyo, Japan, to determine their decomposition points, i.e., temperatures at which the cyanine dyes as test specimens begin to lose their weight on TGA. In parallel, conventional related compounds represented by Chemical Formulae 73 and 76 were analyzed similarly as above. […] In DTA and TGA, the environmental temperature was set to an increasing temperature mode at a rate of 10° C./min.

[3] = diacetone alcohol (DAA), 20 °C, organic solvent or mixture, read-out: Solubility

Structure (SMILES)	Solubility [1, 3]	Decomposition point (° C.) [2]	Solubility [1]
CCCCN1C(=CC=CC2=[N+](CCCC)c3ccc4ccccc4c3C2(C)C)C(C)(C)c2c1ccc1ccccc21 [Chemical Formula 76, reference compound]		266.1 °C	17 mg/mL
CCCCN1C(=CC=CC2=[N+](C)c3ccc4ccccc4c3C2(C)C)C(C)(C)c2c1ccc1ccccc21 [Chemical Formula 13]		264.7 °C	143 mg/mL
CCCCN1C(=CC=CC2=[N+](CC)c3ccc4ccccc4c3C2(C)C)C(C)(C)c2c1ccc1ccccc21 [Chemical Formula 74, reference compound]		211.5 °C	22 mg/mL
CCCCN1C(=CC=CC2=[N+](CC)c3ccc4ccccc4c3C2(C)C)C(C)(C)c2c1ccc1ccccc21 [Chemical Formula 20]		281.8 °C	140 mg/mL
CCCCN1C(=CC=CC2=[N+](CC)c3ccc4ccccc4c3C2(C)C)C(C)(C)c2c1ccc1ccccc21 [Chemical Formula 19]		281.6 °C	23 mg/mL
CCCCN1C(=CC=CC2=[N+](C)c3ccc4ccccc4c3C2(C)C)C(C)(C)c2c1ccc1ccccc21 [Chemical Formula 73, reference compound]		242.2 °C	42 mg/mL
CCCCN1C(=CC=CC2=[N+](CCC)c3ccc4ccccc4c3C2(C)C)C(C)(C)c2c1ccc1ccccc21 [Chemical Formula 75, reference compound]	19 mg/mL	269.0 °C	
CCCN1C(=CC=CC2=[N+](CC)c3ccc4ccccc4c3C2(C)C)C(C)(C)c2c1ccc1ccccc21 [Chemical Formula 21]	2.8 mg/mL	301.9 °C	
CN1C(=CC=CC2=[N+](C)c3ccc4ccccc4c3C2(C)C)C(C)(C)c2c1ccc1ccccc21 [Chemical Formula 16]	1.1 mg/mL	314.5 °C	
CCCCN1C(=CC=CC2=[N+](C)c3ccc4ccccc4c3C2(C)C)C(C)(C)c2c1ccc1ccccc21 [Chemical Formula 14]		279.8 °C	73 mg/mL

Further lines, results first:

Solubility [1, 3]	Decomposition point (° C.) [2]	Solubility [1]	Structure (SMILES)
64 mg/mL	261.3 °C		CCCC[N+]1=C(C=CC=C2N(C)c3c(ccc4ccccc34)C2(C)C)C(C)(C)c2c1ccc1ccccc21 [Chemical Formula 50]
	280.1 °C	6.4 mg/mL	CCCCN1/C(=C\C=C\C2=[N+](CCCC)c3ccc4ccccc4c3C2(C)C)C(C)(C)c2c1ccc1ccccc21 [Chemical Formula 35]
2.7 mg/mL	304.7 °C		CN1C(=CC=CC2=[N+](C)c3ccc4ccccc4c3C2(C)C)C(C)(C)c2ccc3ccccc3c21 [Chemical Formula 43]
	284.2 °C	61 mg/mL	CCCCN1C(=CC=CC2=[N+](CCCC)c3ccc4ccccc4c3C2(C)C)C(C)(C)c2c1ccc1ccccc21 [Chemical Formula 33]

Reference: US6743568B2, “Cyanine dyes” (Kabushiki Kaisha Hayashibara Seibutsu Kagaku Kenkyujo, priority 2000, dated 2004)
